Measured values: patent US20260000642A1 (Tay Therapeutics Limited, priority 2022, published 2026)
Entries after “also recorded” stand apart in the source; their conditions may differ. Where two headings read alike, the source gives them in different places.

Columns and labels:
[1] = Sprague-Dawley rat pharmacokinetics (IV and PO); type: in vivo; settings: rat, plasma; male Sprague-Dawley rats, PO 5 mg/kg (IV 1 mg/kg), cassette mode, Method 1; read-out: PO F (%)
Outline: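 Male Sprague-Dawley rats (2 per arm) dosed in cassette (up to 5 compounds) at 1 mg/kg IV and 5 mg/kg PO, formulated in 5% DMSO/40% PEG-400/55% water. Plasma sampled over time, acetonitrile-precipitated with internal standard, and quantified by LC/MS/MS against matrix-matched standards.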

[2] = Beagle dog PK study 1 (IV and PO, propylene glycol-based formulation); type: in vivo; settings: for concentration at 0.25 h / concentration at 0.5 h / concentration at 1 h / concentration at 2 h / concentration at 4 h / concentration at 8 h / concentration at 24 h: beagle, dog, plasma, po, 5 mg/kg
Procedure: (§1) The purpose of this study was to examine the pharmacokinetics of Example 101 in beagle dogs. […] An oral PK study was also undertaken in Lewis rats—see Experimental Method C.
(§2) Body weight was recoded prior to dosing, and detailed clinical observations were made prior to dosing and throughout the study, as needed.
Subsequently, 17.320 mL Vitamin E TPGS was added, and the solution was vortexed and sonicated. Then, 51.960 mL water was added, and solution was then heated. […] Subsequently, 39.894 mL Vitamin E TPGS was added, and the solution was vortexed and sonicated. Then, 119.682 mL water was added, and the solution was heated.
Blood samples (˜0.3 mL) were collected according to a schedule (detailed below) by venipuncture of peripheral veins except for the dosing vein, and EDTA-K2 was used as anticoagulant. Within 30 minutes of collection, the samples were centrifuged at approximately 2000× g for 10 minutes at 4° C. to obtain blood plasma. The plasma samples were immediately divided into two aliquots (˜75 μL each), transferred to a cryogenic vial, and stored in a freezer at −75±15° C. prior to analysis.
Blood samples were collected at 0.25, 0.5, 1, 2, 4, 8, and 24 h following the initial dosing (0 h).
(§3) The experiments were conducted on a Shimadzu DGU-20A5R and AB API 5500+LC/MS/MS instrument with an Agilent Poroshell EC-C18 4 μm (50×2.1 mm) column. A gradient of 95% water (0.1% formic acid)/95% acetonitrile (0.1% formic acid) was used as the mobile phase. The sample injection volume was 1 μL, and the flow rate was 0.6 mL/min. The gathered data were used for pharmacokinetic calculations using T½, C0, AUClast, AUCinf, MRTinf, CI, Vss, and Number of Points for Regression as parameters.

[3] = Beagle dog PK study 2 (IV, HPβCD based formulation); type: in vivo
Procedure: as §1, §2
78.646 mL of HPβCD (20% solution w/v) was then added with vortex and sonication.
Blood samples (˜0.3 mL) were collected according to a schedule (shown below) by venipuncture of peripheral veins except for the dosing vein, and EDTA-K2 was used as anticoagulant. Within 30 minutes of collection, the samples were centrifuged at approximately 2000× g for 10 minutes at 4° C. to obtain blood plasma. The plasma samples were immediately divided into two aliquots (˜75 μL each), transferred to a cryogenic vial, and stored in a freezer at −75±15° C. prior to analysis.
Blood samples were collected at 0.083, 0.25, 0.5, 1, 2, 4, 8, and 24 h following the initial dosing (0 h).
as §3

hydroxyproline = test: UUO model: kidney hydroxyproline by ELISA; type: in vivo, rat; settings: UUO rats; 30 mg/kg; compared with sham and UUO + vehicle
Description: Serum for blood biochemistry analysis was collected into centrifuge tubes without coagulant four hours after final dosing. Blood plasma samples from group 3 was collected into tubes with K2EDTA four hours after final dosing. At the conclusion of the study (end of the 14-day period), animals were euthanized. Kidney tissue was collected four hours after final dosing. Ligated side kidney was divided into three copies 1/3 fix into 10% formalin for H&E analysis, 1/3 into RNA for PCR analysis of tissue biomarkers Col1a1, TGF-b1, MCP-1, IL-1b, IL-6, IL-17, TNF-a, and Timp1, and 1/3 for hydroxyproline assay analyzed by ELISA. RNA was extracted from tissue using the RNeasy mini kit (Qiagen). RNA concentration was measured using a NanoDrop One Spectrophotometer (ThermoFisher) and converted to cDNA using a High-Capacity RNA-to-cDNA kit (Invitrogen). RT-PCR was performed to measure levels of mRNA of different targets using TaqMan® Gene Expression Master Mix and TaqMan® probe/primer sets on a QuantStudio 6 Real-Time PCR System (ThermoFisher). Fold change in target gene expression was determined using the ΔΔCt method.

[4] = PK study 1, PO 5 mg/kg, Test Animal 1, read-out: Plasma concentration
[5] = PK study 1, PO 5 mg/kg, Test Animal 2, read-out: Plasma concentration
[6] = PK study 1, PO 5 mg/kg, Test Animal 3, read-out: Plasma concentration
[7] = PK study 1, PO 5 mg/kg, read-out: Average plasma concentration, Mean

In the case of `CNC(=O)c1[nH]c(C(=O)NC2CCC2)cc1O[C@@H](C)c1ccccc1` [Example 101, N^5-cyclobutyl-N^2-methyl-3-(1-phenylethoxy)-1H-pyrrole-2,5-dicarboxamide], the bioavailability [1] is reported as 66%, the “AUClast/D, Mean” value ([2]; PK study 1, IV 1 mg/kg) is reported as 1883 (ng · h/mL)/(mg/kg) and the “AUC—% Extrap_obs, Mean” value ([2]; PK study 1, IV 1 mg/kg) is reported as 0.73%. For the same molecule, the “C0, Mean” value ([2]; PK study 1, IV 1 mg/kg) was 1512 ng/mL, the “Cl_obs, Mean” value ([2]; PK study 1, IV 1 mg/kg) was 8.84 mL/min/kg and the “Vss_obs, Mean” value ([2]; PK study 1, IV 1 mg/kg) was 0.733 L/kg. The Vss_obs ([2]; PK study 1, IV 1 mg/kg, Test Animal 1) was 0.734 L/kg, the Vss_obs ([2]; PK study 1, IV 1 mg/kg, Test Animal 2) was 0.747 L/kg and the Vss_obs ([2]; PK study 1, IV 1 mg/kg, Test Animal 3) was 0.719 L/kg. For the same molecule, the “AUClast/D, Mean” value ([2]; PK study 1, PO 5 mg/kg) was 830 (ng · h/mL)/(mg/kg), the “AUC—% Extrap_obs, Mean” value ([2]; PK study 1, PO 5 mg/kg) was 0.531% and the “F, Mean” value ([2]; PK study 1, PO 5 mg/kg) was 44.0%. For the same molecule, the F ([2]; PK study 1, PO 5 mg/kg, Test Animal 1) was 48.0%, the AUClast/D ([2]; PK study 1, PO 5 mg/kg, Test Animal 3) was 1000 (ng · h/mL)/(mg/kg) and the “clinical observations after intravenous administration” value ([2]; beagle dogs, PK study 1, group 1 (IV), 20% propylene glycol/20% Vitamin E TPGS/60% water, individual animals) was “Vomitus with solid food and soft feces; also recorded: twitching of hindlimbs; also recorded: Slight twitching and lacrimation”. The “clinical observations after oral administration” value ([2]; beagle dogs, PK study 1, group 2 (PO), 20% propylene glycol/20% Vitamin E TPGS/60% water) was “Loose feces”, the “time post-administration at which plasma concentrations began to steadily decrease” value ([2]; beagle dogs, PK study 1, oral administration) was “approximately 1 h” and the “tolerability in dog PK studies” value ([2]; beagle dogs, oral and intravenous) was “well tolerated”. It also gave a concentration at 0.25 h [2, 4] of 173 ng/mL, a concentration at 0.25 h [2, 5] of 775 ng/mL and a concentration at 0.25 h [2, 6] of 309 ng/mL. It also gave a concentration at 0.25 h [2, 7] of 419 ng/mL, a concentration at 0.5 h [2, 4] of 1480 ng/mL and a concentration at 0.5 h [2, 5] of 1550 ng/mL. For the same molecule, the concentration at 0.5 h [2, 6] was 1320 ng/mL, the concentration at 0.5 h [2, 7] was 1450 ng/mL and the concentration at 1 h [2, 4] was 2220 ng/mL. For the same molecule, the concentration at 1 h [2, 5] was 1180 ng/mL, the concentration at 1 h [2, 6] was 2240 ng/mL and the concentration at 1 h [2, 7] was 1880 ng/mL. The concentration at 2 h [2, 4] was 1130 ng/mL, the concentration at 2 h [2, 5] was 621 ng/mL and the concentration at 2 h [2, 6] was 1310 ng/mL. It also gave a concentration at 2 h [2, 7] of 1020 ng/mL, a concentration at 4 h [2, 4] of 142 ng/mL and a concentration at 4 h [2, 5] of 103 ng/mL. It also gave a concentration at 4 h [2, 6] of 254 ng/mL, a concentration at 4 h [2, 7] of 166 ng/mL and a concentration at 8 h [2, 4] of 9.51 ng/mL. It also gave a concentration at 8 h [2, 5] of 14.8 ng/mL, a concentration at 8 h [2, 6] of 9.52 ng/mL and a concentration at 8 h [2, 7] of 11.3 ng/mL. For the same molecule, the concentration at 24 h [2, 4] was 4.58 ng/mL, the concentration at 24 h [2, 7] was 1.53 ng/mL and the “AUClast/D, Mean” value ([3]; PK study 2, IV 1 mg/kg) was 977 (ng · h/mL)/(mg/kg). For the same molecule, the “AUC—% Extrap_obs, Mean” value ([3]; PK study 2, IV 1 mg/kg) was 0.689%, the “C0, Mean” value ([3]; PK study 2, IV 1 mg/kg) was 1875 ng/mL and the “Cl_obs, Mean” value ([3]; PK study 2, IV 1 mg/kg) was 18.3 mL/min/kg. The “Vssz_obs, Mean” value ([3]; PK study 2, IV 1 mg/kg) was 0.864 L/kg, the “Average plasma concentration, Mean” value ([3]; PK study 2, IV 1 mg/kg, 24 h) was “BLOQ” and the Vssz_obs ([3]; PK study 2, IV 1 mg/kg, Test Animal 1) was 0.838 L/kg. For the same molecule, the Vssz_obs ([3]; PK study 2, IV 1 mg/kg, Test Animal 2) was 0.886 L/kg, the Vssz_obs ([3]; PK study 2, IV 1 mg/kg, Test Animal 3) was 0.868 L/kg and the “clinical observations after intravenous administration” value ([3]; beagle dogs, PK study 2, IV, 0.5 mg/mL in HPβCD (20% solution w/v)/DMSO (99/1)) was “soft feces”. For the same molecule, the hydroxyproline levels (hydroxyproline) was “No significant differences”.
